Series [1] deals with NCI-H929. Nature of the series: Anti-proliferative activity against human NCI-H929 cells assessed as inhibition cell growth at 5 uM incubated for 72 hrs by CCK-8 assay. In kind it is functional, cell-based.
Series [2] concerns NCI-H929. Description: Antitumor activity against human NCI-H929 cells xenografted in BALB/C nude mouse model assessed as reduction in tumor growth at 50 mg/kg, sc administrated every other day for 13 days. In kind it is functional, organism-based. As to conditions: time 13.0 day.
Series [3] is described as follows: Anti-proliferative activity against human ARP-1cells assessed as cell growth inhibition incubated for 72 hrs by CCK-8 assay. To be noted: ARP-1, 72 h. (In general: Tetrazolium assays rely on reduction of a dye to a coloured formazan, in cell work by metabolically active cells.)
A short description of series [4]: Toxicity in BALB/c mouse xenografted with human NCI-H929 cells assessed as effect on body weight at 50 mg/kg, sc administrated every other day for 13 days. To be noted: in vivo, 312 h, time 13 day. The format is organism-based. A general note: Xenograft models place foreign cells or tissue in a host animal.
For series [5], the system named is NCI-H929. Description: Anti-proliferative activity against human NCI-H929 cells assessed as cell growth inhibition incubated for 72 hrs by CCK-8 assay. To be noted: NCI-H929, 72 h.
Series [6] relates to ARP-1. Nature of the series: Anti-proliferative activity against human ARP-1 cells assessed as inhibition cell growth incubated for 72 hrs by CCK-8 assay. In kind it is functional, cell-based.
The test system of series [7] is NCI-H929. Nature of the series: Anti-proliferative activity against human NCI-H929 cells assessed as inhibition cell growth incubated for 72 hrs by CCK-8 assay. The format is functional, cell-based.
Series [8] concerns NCI-H929. Description: Antitumor activity against human NCI-H929 cells xenografted in BALB/c nude mouse assessed as Ki-67 activity in tumor by microscopy based analysis. In kind it is functional, cell-based.
Series [9] can be described thus: Toxicity in BALB/c mouse assessed as histological change in kidney at 50 mg/kg, sc administrated every other day for 13 days by H and E staining based light microscopic analysis. In kind it is organism-based. To be noted: in vivo, 312 h, time 13 day.
For series [10], the system named is NCI-H929. Description: Induction of DNA damage in human NCI-H929 cells assessed as increase gamma-H2AX level at 10 to 20 uM incubated for 24 hrs by Western blot analysis. The format is functional, cell-based. To be noted: dose 10-20 µM. A general note: Immunoblotting shows a protein as a band on a membrane.
Series [11] in a line: Toxicity in BALB/c nude mouse xenografted with human NCI-H929 cells assessed as side effect at 50 mg/kg, sc administrated every other day for 13 days by H and E staining based light microscopic analysis. In kind it is organism-based. As to conditions: in vivo, 312 h, time 13 day.
The nature of series [12]: Toxicity in BALB/c mouse assessed as histological change in tumor at 50 mg/kg, sc administrated every other day for 13 days by H and E staining based light microscopic analysis. In kind it is organism-based. To be noted: in vivo, 312 h, time 13 day.
The nature of series [13]: Toxicity in BALB/c nude mouse xenografted with human NCI-H929 cells assessed as drug tolerance at 50 mg/kg, sc administrated every other day for 13 days by H and E staining based light microscopic analysis. In kind it is organism-based. To be noted: in vivo, 312 h, time 13 day.
A short description of series [14]: Toxicity in BALB/c mouse assessed as histological change in heart at 50 mg/kg, sc administrated every other day for 13 days by H and E staining based light microscopic analysis. In kind it is organism-based. As to conditions: in vivo, 312 h, time 13 day.
A short description of series [15]: Toxicity in BALB/c mouse assessed as histological change in liver at 50 mg/kg, sc administrated every other day for 13 days by H and E staining based light microscopic analysis. In kind it is organism-based. To be noted: in vivo, 312 h, time 13 day.
Series [16] has as its system ARP-1. Nature of the series: Anti-proliferative activity against human ARP-1 cells assessed as inhibition cell growth at 5 uM incubated for 72 hrs by CCK-8 assay. In kind it is functional, cell-based.

The structures appear in SMILES notation. Active and inactive are the calls of the source. The calls are words filed in the database; no cut-off is given here.

By IC50 is commonly meant the concentration that inhibits the measured activity by half. On to `O=C1C2C3C=CC(C4CC34)C2C(=O)N1c1ccc(Cc2ccncc2)cc1` (stereo unspecified), for which the result with NCI-H929 [1] and in the series with NCI-H929 [2] was Active. The IC50 in series [3] was 5.45 µM; in the series on NCI-H929 [5] it was 6.88 µM. Also, the Activity entry in series [4] was “Non-Toxic”.
Regarding `Cc1ccc(SC2CC(O)[C@H](NC(=O)c3ccc4c(c3)OCO4)O[C@@H]2CO)cc1` (stereo partly specified), the outcome in the series with ARP-1 [6] and in the series with NCI-H929 [7] was Active.
Turning to `COc1ccc(SC2CC(=O)[C@H](NC(=O)c3ccc4c(c3)OCO4)O[C@@H]2COC(C)=O)cc1OC` (stereo partly specified), the result in the series with NCI-H929 [1], with NCI-H929 [8], with NCI-H929 [2], in the series on NCI-H929 [10] and with ARP-1 [16] was Active. In addition, the Activity result in series [9], in series [11], in series [12], in [4], in [13] and in series [14] was “Non-Toxic” throughout. Also, the Activity result in series [15] was “Non-Toxic”. In addition, the half-inhibitory concentration (IC50) in [3] came to 2.07 µM; in the series with NCI-H929 [5], 1.24 µM.

The values above are taken from ChEMBL document CHEMBL5614386, “Design, synthesis, and biological evaluation of novel 1-amido-2-one-4-thio-deoxypyranose as potential antitumor agents for multiple myeloma” (Bioorg Med Chem, 2024).
